Data published in PubChem BioAssay (NCI).
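96-well plates; 48 h exposure; 5 concentrations. Endpoints by linear interpolation between flanking doses. Not reached: highest tested concentration assigned. GI50: concentration for 50% inhibition of growth. TGI is the concentration that stops growth completely.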

Experiments:
Test in all cases: inhibition of tumour cell growth, NCI panel, 48 h
ACHN renal = tested on: ACHN renal
DU-145 prostate = tested on: DU-145 prostate
MALME-3M melanoma = tested on: MALME-3M melanoma
NCI-H23 lung = tested on: NCI-H23 lung
OVCAR-4 ovarian = tested on: OVCAR-4 ovarian
RXF 393 renal = tested on: RXF 393 renal
SK-OV-3 ovarian = tested on: SK-OV-3 ovarian
SN12C renal = tested on: SN12C renal
U251 CNS = tested on: U251 CNS
NCI/ADR-RES ovarian = tested on: NCI/ADR-RES ovarian

SMILES | GI50 (ACHN renal) [µM] | TGI (ACHN renal) [µM] | GI50 (DU-145 prostate) [µM] | TGI (DU-145 prostate) [µM] | GI50 (MALME-3M melanoma) [µM] | TGI (MALME-3M melanoma) [µM] | GI50 (NCI-H23 lung) [µM] | TGI (NCI-H23 lung) [µM] | GI50 (OVCAR-4 ovarian) [µM] | TGI (OVCAR-4 ovarian) [µM] | GI50 (RXF 393 renal) [µM] | TGI (RXF 393 renal) [µM] | GI50 (SK-OV-3 ovarian) [µM] | TGI (SK-OV-3 ovarian) [µM] | GI50 (SN12C renal) [µM] | TGI (SN12C renal) [µM] | GI50 (U251 CNS) [µM] | TGI (U251 CNS) [µM] | GI50 (NCI/ADR-RES ovarian) [µM] | TGI (NCI/ADR-RES ovarian) [µM]
CCOC(=O)C1=C(C)N(c2ccc(Cl)cc2)[C@]2(C#N)C(O)=C(Cl)C(Cl)=C(O)[C@]12C#N | 31.6 | > 100 | 0.339 | 24.5 | > 100 | > 100 | > 100 | > 100 | > 100 | > 100 | > 100 | > 100 | 69.6 | > 100 | > 100 | > 100 | > 100 | > 100 | – | –
COc1ccc(-c2cc(Cc3cccs3)c(=O)[nH]n2)cc1 | – | > 100 | – | – | – | > 100 | – | > 100 | – | – | – | > 100 | – | > 100 | – | > 100 | – | > 100 | – | –
CCC(=O)C12OC3OC(C)(C)OC3C1OC(C)(C)O2 (stereo not drawn) | – | > 100 | – | – | – | > 100 | – | > 100 | – | > 100 | – | > 100 | – | > 100 | – | > 100 | – | > 100 | – | –
Cc1cc(S(=O)(=O)/N=C(/N)Nc2ccccc2O)c(SCc2ccccc2)cc1Cl | 13 | 27.4 | 23.9 | 79.5 | 20.3 | 38.2 | 17.1 | 34.4 | 11.4 | 34.9 | 12.1 | 27.9 | – | – | 14.3 | 30.4 | 14.9 | 30.5 | 16.7 | 36.6
CCN(CC)CC1c2ccccc2C(CNc2ccccc2)N1C (stereo not drawn) | – | > 100 | – | – | – | > 100 | – | > 100 | – | > 100 | – | > 100 | – | > 100 | – | > 100 | – | – | – | –
FC(F)(F)c1ccc(-c2cnc(-c3ncon3)nc2NC2CCCCCC2)cc1 | 48.6 | > 100 | 63.3 | > 100 | 49.8 | > 100 | 37 | > 100 | 37.2 | > 100 | 28.9 | > 100 | > 100 | > 100 | 21.4 | 63 | – | – | 35.3 | > 100
CCCCCCCCCCCCCCCCCC[n+]1ccc2c(C)c3c(c(C)c2c1)c1cc(O)ccc1n3CC | 3.51 | 19.6 | 1.87 | 5.64 | – | – | 0.912 | 6.57 | 0.954 | 12 | 1.57 | 3.89 | 1.84 | 7.6 | 1.79 | 6.08 | – | – | 10.8 | 39
O=C1CC(c2c[nH]c3ccccc23)C(=O)N1 (stereo not drawn) | – | > 100 | – | – | – | > 100 | – | > 100 | – | > 100 | – | > 100 | – | > 100 | – | – | – | > 100 | – | –
CC(=O)OC12C=C(C)C(C(C)C1)C1C(=O)N(CCN3CCOCC3)C(=O)C12 (stereo not drawn) | > 100 | > 100 | > 100 | > 100 | > 100 | > 100 | > 100 | > 100 | > 100 | > 100 | – | – | > 100 | > 100 | > 100 | > 100 | > 100 | > 100 | > 100 | > 100
COc1cc2c(c(OC)c1OC)-c1ccc(SC)c(=O)cc1C(NC(=O)c1ccccc1)CC2 (stereo not drawn) | – | > 63.1 | – | – | – | 32.7 | – | 0.903 | – | 22.2 | – | 7.88 | – | 1.94 | – | 52.6 | – | 4.18 | – | –
COc1cc2c3c(n(C)c(=O)c2cc1OC)-c1cc2c(cc1/C3=C\CCCCN1C(=O)c3ccccc3C1=O)OCO2 | 1.8 | 10.9 | – | – | – | – | 1.34 | 19.2 | 26 | > 100 | 56.5 | > 100 | 13.5 | 45.7 | – | – | 10.6 | 25.8 | 24.1 | > 100
CC(=O)Nc1ccc(SC#N)c2c(NC(C)=O)cccc12 | – | > 100 | – | – | – | > 100 | – | > 100 | – | > 100 | – | > 100 | – | > 100 | – | > 100 | – | > 100 | – | –
Cc1c(/C=N/N=C/c2[nH]c(C(=O)OC(C)(C)C)c(C)c2C)[nH]c(C(=O)OC(C)(C)C)c1C | – | – | – | – | – | > 100 | – | > 100 | – | > 100 | – | > 100 | – | > 100 | – | > 100 | – | > 100 | – | –
COc1cc(C(=O)C/C(CCC(=O)Nc2ccccc2[N+](=O)[O-])=N\NC(N)=O)ccc1O | – | > 100 | – | – | – | > 100 | – | > 100 | – | – | – | > 100 | – | > 100 | – | > 100 | – | > 100 | – | –
COC(=O)C1(C)CCc2c(OC)ccc(OC)c2C1=O (stereo not drawn) | – | > 100 | – | – | – | > 100 | – | > 100 | – | > 100 | – | > 100 | – | > 100 | – | > 100 | – | > 100 | – | –
Fc1ccc(C2SCc3nc4ccccc4n32)c(F)c1 (stereo not drawn) | – | > 100 | – | – | – | > 100 | – | > 100 | – | > 100 | – | > 100 | – | > 100 | – | > 100 | – | > 100 | – | –
CN(C)CCCn1c(=O)c2ccccc2c2ccccc21 | 4.84 | > 100 | 18.5 | 52 | – | – | 17.6 | 46 | 22.3 | 70.5 | 12.5 | 26.7 | 26.6 | > 100 | 16.9 | > 100 | 13.8 | 78.5 | 10.9 | > 100
CC1(O)C=CC(=O)C=C1 | – | > 62.8 | – | – | – | 39.5 | – | 93.8 | – | > 91.1 | – | 44.4 | – | > 100 | – | > 100 | – | 48.1 | – | –
O=C(NC1CCCCC1)NS(=O)(=O)c1ccc2c(c1)CCC2 | – | > 100 | – | – | – | > 100 | – | > 100 | – | – | – | > 100 | – | > 100 | – | > 100 | – | > 100 | – | –
O=C1OCC2=C1C(c1ccccc1)c1cc3c(cc1N2)OCO3 (stereo not drawn) | 0.0946 | 36.4 | 0.0443 | > 100 | 14.1 | > 100 | 0.0449 | > 100 | 0.0823 | > 48.3 | – | – | 0.0308 | 1.39 | 0.0557 | > 65 | 0.0409 | > 50.1 | 0.0204 | 1.62
